For assay [1], the system named is AsPC-1 cell line (pancreatic adenocarcinoma). In kind it is cell-based. To be noted: AsPC-1; read-out: IC50. As for the experimental part:
The cell proliferation assay was performed following the procedure previously described (Perera Y, et al., 2012, J. Pept. Sci, 18 (4):215-23).
(§1) The evaluation of the antiproliferative activity of synthetic polypeptides A15P35, A15P36 and A15P37 (SEQ ID NO: 46-SEQ ID NO: 48) was performed on the NCI-H125, AsPC-1, PanC-1 (pancreatic carcinoma) and OCI-AML3 (acute myeloid leukemia-3) cell lines. The test was carried out according to the procedure previously described (Perera Y, et al., 2012, J. Pept. Sci, 18 (4):215-23). […] The polypeptides A15P35, A15P36 and A15P37 were able to produce a dose-dependent effect on the proliferation of NCI-H125 cells.

The subject of assay [2] is NCI-H125 cell line (non-small cell lung cancer). In words: cell proliferation assay, NCI-H125 line. Type of assay: cell-based. As for the experimental part:
The evaluation of the antiproliferative activity of polypeptides F11P13-F11P21 (SEQ ID NO: 12-SEQ ID NO: 20) was performed on the NCI-H125 cell line. […] The antiproliferative effect of the CIGB-300 peptide has been widely characterized in this line (Cirigliano S. M., et al., 2017, Cancer Cell International, 17, 42), therefore, it was selected as a positive control. Tat peptide was used as a negative control. The polypeptides were evaluated at the concentrations of 25, 50, 100 and 200 μM. The cell proliferation assay was performed by a previously described procedure (Perera Y., et al., 2012, J. Pept. Sci, 18 (4):215-23).
The 24 polypeptides identified as SEQ ID NO: 21-SEQ ID NO: 44 maintained the ability to inhibit the phosphorylation of the E7 protein of HPV-16, mediated by CK2, since phosphorylation inhibition values between 60-85% were obtained. […] Evaluation of the antiproliferative activity of synthetic polypeptides generated by positional scanning of Trp (SEQ ID NO: 21-SEQ ID NO: 44) was performed on the NCI-H125 cell line. The test was performed by the procedure previously described. (Perera Y., et al., 2012, J. Pept. Sci, 18 (4): 215-23). Precursor polypeptides (F11P19, F11P20, F11P21) and peptide CIGB-300 were included as positive controls. The polypeptides were evaluated at the concentrations of 12.5; 25; fifty; 100 and 200 μM.
as §1
(§2) Antiproliferative assays were performed on the NCI-H125, Hep2C (laryngeal carcinoma) cell lines, and on two bladder cancer lines (MGH-U3 and MGH-U4). The test was carried out according to the procedure previously described (Perera Y., et al, 2012, Pept. Sci, 18 (4):215-23).

Assay [3] has as its system PanC-1 (pancreatic carcinoma) cell line. In words: cell proliferation assay, PanC-1 line. Type of assay: cell-based. To be noted: Table 7. Here is the method: as §1
Assay [4] has as its target T1, CK2-mediated phosphorylation of the HPV-16 E7 oncoprotein (Human papillomavirus type 16, UniProt P03129).
T1 construct: Glutathione S-Transferase (GST); made in house; host or cells: Escherichia coli
In words: in vitro phosphorylation reaction, E7 oncoprotein (GST fusion) as substrate. To be noted: procedure of Example 2. Type of assay: biochemical. As for the experimental part:
The assay to measure the effect of these peptides on the CK2-mediated phosphorylation of the HPV-16 E7 oncoprotein, was based on an in vitro phosphorylation reaction, where the E7 oncoprotein of HPV-16 expressed in Escherichia coli was used as substratum. This oncoprotein was obtained as a fusion protein to Glutathione S-Transferase. The assay was performed according to the procedure previously described. (Perea S. E., et al., 2004, Cancer Res., 64: 7127-7129). The results are shown in FIG. 1, and indicate that the peptides identified as SEQ ID NO: 1-SEQ ID NO: 9 are capable of inhibiting CK2-mediated phosphorylation of the E7 protein of HPV-16.

Assay [5] relates to MGH-U3 bladder cancer line. In words: cell proliferation assay, MGH-U3 line. Particulars: Table 9. In kind it is cell-based, human. As for the experimental part: as §2
Assay [6] relates to Hep2C (laryngeal carcinoma) cell line. In words: cell proliferation assay, Hep2C line. Type of assay: cell-based. To be noted: Table 9. As for the experimental part: as §2
The subject of assay [7] is MGH-U4 bladder cancer line. In words: cell proliferation assay, MGH-U4 line. In kind it is cell-based. Particulars: Table 9. As for the experimental part:
as §2

The subject of assay [8] is OCI-AML3 (acute myeloid leukemia-3) cell line. Briefly: cell proliferation assay, OCI-AML3 line. Type of assay: cell-based. To be noted: Table 7. As for the experimental part: as §1

Read-outs that look alike come from different tables or passages of the source. Where a SMILES comes first, the peptide text is derived from it. Bridges are numbered along the chain shown (N, C = ends). [ ]: non-standard residue; d: D form. βAla = NCCC(=O)O

This is an account of results in patent US20240317827A1, “LINEAR PEPTIDES INHIBITING CK2-MEDIATED PHOSPHORYLATION AND COMPOSITIONS COMPRISING SAME” (CENTRO DE INGENIERÍA GENÉTICA Y BIOTECNOLOGÍA, priority 2021, published 2024).

Broadly, the IC50 is the concentration at which inhibition is half-maximal.

T1 sequence (P03129 whole entry): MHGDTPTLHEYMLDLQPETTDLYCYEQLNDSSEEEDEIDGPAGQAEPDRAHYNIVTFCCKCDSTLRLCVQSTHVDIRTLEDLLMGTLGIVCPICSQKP

As for `CSCC[C@@H]1NC(=O)[C@H](Cc2c[nH]c3ccccc23)NC(=O)[C@@H](NC(=O)CCNC(=O)[C@H](CCC(N)=O)NC(=O)[C@@H]2CCCN2C(=O)[C@@H]2CCCN2C(=O)[C@H](CCCNC(=N)N)NC(=O)[C@H](CCCNC(=N)N)NC(=O)[C@H](CCCNC(=N)N)NC(=O)[C@H](CCC(N)=O)NC(=O)[C@H](CCCNC(=N)N)NC(=O)[C@H](CCCNC(=N)N)NC(=O)[C@H](CCCCN)NC(=O)[C@H](CCCCN)NC(=O)[C@H](CCCNC(=N)N)NC(=O)CN)CSSC[C@@H](C(N)=O)NC(=O)[C@H]([C@@H](C)O)NC(=O)CNC(=O)[C@H](CC(C)C)NC(=O)[C@H](Cc2c[nH]cn2)NC(=O)[C@H](CCCNC(=N)N)NC(=O)[C@@H]2CCCN2C(=O)[C@H](CO)NC1=O` [CIGB-300, cycle (Cys15-Cys25) GRKKRRQRRRPPQ-βA-CWMSPRHLGTC, reference compound] (H-GRKKRRQRRRPPQ[βAla]CWMSPRHLGTC-NH2; disulfide 15-25; N-terminus and C-terminus assumed), the IC50 in assay [1] amounted to 102 µM; in assay [2] (NCI-H125, read-out: IC50 (dose-effect curves)), 64 µM; in assay [2] (Table 7, read-out: IC50 (μM) NCI-H125), 64 µM; in assay [2] (Table 9, read-out: IC50 (μM) NCl-H125) it was 64 µM; in assay [3] it was 156 µM; in assay [5], 327 µM. Besides, the values for the IC50 in assay [6], in assay [7] and in assay [8] were 61 µM, 335 µM and 63 µM, respectively. In addition, the “percentage of inhibition of proliferation” value in assay [2] (NCI-H125, evaluated at 25, 50, 100 and 200 μM, concentration not given) came to 50%. This compound gave a phosphorylation inhibition in assay [4] of 87%.
